In ChEMBL document CHEMBL1128274, “6-Aminoquinolones: a new class of quinolone antibacterials?” (1995):
Converted amounts (≈) assume the structure as drawn.

Tests used:
Format in all cases: functional
[1] = system: Acinetobacter calcoaceticus; assay: Tested in vitro for inhibitory activity against gram negative bacteria Acinetobacter calcoaceticus OSMPV 113 strain.
Enterobacter cloacae = assay: Tested in vitro for inhibitory activity against gram negative bacteria Enterobacter cloacae OMNFI 174 strain.
Escherichia coli [2] = assay: Tested in vitro for inhibitory activity against gram negative bacteria Escherichia coli ATCC 8739 strain
Escherichia coli [3] = assay: Tested in vitro for inhibitory activity against gram negative bacteria Escherichia coli ISF 432 strain.
Providencia stuartii [4] = assay: Tested in vitro for inhibitory activity against gram negative bacteria Providencia stuartii CNUR 5 cell lines
Shigella = assay: Tested in vitro for inhibitory activity against gram negative bacteria Shigella enteritidis
[5] = system: Staphylococcus epidermidis; assay: Tested in vitro for inhibitory activity against gram positive bacteria Staphylococcus epidermidis HCF berset C strain
Staphylococcus aureus [6] = assay: Tested in vitro for inhibitory activity against gram positive bacteria Staphylococcus aureus ATCC 6538 strain
Staphylococcus aureus [7] = assay: Tested in vitro for inhibitory activity against gram positive bacteria Staphylococcus aureus MPR 5 strain
Enterococcus faecalis = assay: Tested in vitro for inhibitory activity against gram positive bacteria Streptococcus faecalis LEP Br strain
[8] = system: Staphylococcus epidermidis; assay: Tested in vitro for inhibitory activity against gram positive bacteria Staphylococcus epidermidis CPHL A2 strain
Klebsiella pneumoniae = assay: Tested in vitro for inhibitory activity against gram negative bacteria Klebsiella pneumoniae ATCC 10031 strain
Pseudomonas aeruginosa = assay: Tested in vitro for inhibitory activity against gram negative bacteria Pseudomonas aeruginosa ATCC 9027 strain
Escherichia coli [9] = assay: Tested in vitro for inhibitory activity against gram negative bacteria Escherichia coli ATCC 8739 cell lines at 10 ug/mL
Escherichia coli [10] = assay: Tested in vitro for inhibitory activity against gram negative bacteria Escherichia coli ISF 432 cell lines at 10 ug/mL
Providencia stuartii [11] = assay: Tested in vitro for inhibitory activity against gram negative bacteria Providencia stuartii CNUR 5 strain
Escherichia coli [12] = assay: Tested in vitro for inhibitory activity against gram negative bacteria Escherichia coli ATCC 8739 cell lines at 5.8 ug/mL
Escherichia coli [13] = assay: Tested in vitro for inhibitory activity against gram negative bacteria Escherichia coli ISF 432 cell lines at 5.8 ug/mL
Escherichia coli [14] = assay: Tested in vitro for inhibitory activity against gram negative bacteria Escherichia coli ATCC 8739 cell lines
Escherichia coli [15] = assay: Tested in vitro for inhibitory activity against gram negative bacteria Escherichia coli ATCC 8739 strain at 25 ug/mL
Escherichia coli [16] = assay: Tested in vitro for inhibitory activity against gram negative bacteria Escherichia coli ISF 432 strain at 25 ug/mL
[17] = Minimum concentration at which cleaved linear DNA is observed

Compound	MIC [1] [µg/mL]	MIC (Enterobacter cloacae) [µg/mL]	MIC (Escherichia coli [3]) [µg/mL]	MIC (Shigella) [µg/mL]	MIC [5] [µg/mL]	MIC (Staphylococcus aureus [6]) [µg/mL]	MIC (Staphylococcus aureus [7]) [µg/mL]	MIC (Enterococcus faecalis) [µg/mL]	MIC [8] [µg/mL]	MIC (Klebsiella pneumoniae) [µg/mL]	MIC (Pseudomonas aeruginosa) [µg/mL]	MIC (Providencia stuartii [11]) [µg/mL]	MIC (Escherichia coli [14]) [µg/mL]	also measured
Nc1cc2c(=O)c(C(=O)O)cn(C3CC3)c2cc1Cl	128 (≈ 459 µM)	16 (≈ 57.4 µM)	2 (≈ 7.18 µM)	16 (≈ 57.4 µM)	64 (≈ 230 µM)	128 (≈ 459 µM)	128 (≈ 459 µM)	128 (≈ 459 µM)	128 (≈ 459 µM)	2 (≈ 7.18 µM)	128 (≈ 459 µM)			MIC (Escherichia coli [2]): 2 µg/mL (≈ 7.18 µM); MIC (Providencia stuartii [4]): 64 µg/mL (≈ 230 µM)
Nc1cc2c(=O)c(C(=O)O)cn(C3CC3)c2cc1N1CCSCC1	1 (≈ 2.89 µM)	0.5 (≈ 1.45 µM)		0.5 (≈ 1.45 µM)	2 (≈ 5.79 µM)	0.5 (≈ 1.45 µM)	0.5 (≈ 1.45 µM)	8 (≈ 23.2 µM)	1 (≈ 2.89 µM)	0.03 (≈ 0.0868 µM)	2 (≈ 5.79 µM)	1 (≈ 2.89 µM)		MIC (Escherichia coli [9]): 0.03 µg/mL (≈ 0.0868 µM); MIC (Escherichia coli [10]): 0.03 µg/mL (≈ 0.0868 µM)
Nc1cc2c(=O)c(C(=O)O)cn(C3CC3)c2c(F)c1N1CCSCC1	1 (≈ 2.75 µM)	1 (≈ 2.75 µM)		4 (≈ 11 µM)	1 (≈ 2.75 µM)	0.5 (≈ 1.38 µM)	0.25 (≈ 0.688 µM)	4 (≈ 11 µM)	0.5 (≈ 1.38 µM)	0.03 (≈ 0.0826 µM)	4 (≈ 11 µM)	0.5 (≈ 1.38 µM)		MIC (Escherichia coli [12]): 0.12 µg/mL (≈ 0.33 µM); MIC (Escherichia coli [13]): 0.06 µg/mL (≈ 0.165 µM)
CN1CCN(c2cc3c(cc2N)c(=O)c(C(=O)O)cn3C2CC2)CC1	4 (≈ 11.7 µM)	0.25 (≈ 0.73 µM)		0.25 (≈ 0.73 µM)	4 (≈ 11.7 µM)	2 (≈ 5.84 µM)	2 (≈ 5.84 µM)	32 (≈ 93.5 µM)	2 (≈ 5.84 µM)	0.03 (≈ 0.0876 µM)	4 (≈ 11.7 µM)	8 (≈ 23.4 µM)		MIC (Escherichia coli [15]): 0.25 µg/mL (≈ 0.73 µM); MIC (Escherichia coli [16]): 0.03 µg/mL (≈ 0.0876 µM)
CN1CCN(c2cc3c(c(N)c2N)c(=O)c(C(=O)O)cn3C2CC2)CC1	128 (≈ 358 µM)	128 (≈ 358 µM)	16 (≈ 44.8 µM)	128 (≈ 358 µM)	128 (≈ 358 µM)	128 (≈ 358 µM)	128 (≈ 358 µM)	128 (≈ 358 µM)	128 (≈ 358 µM)	32 (≈ 89.5 µM)	128 (≈ 358 µM)	128 (≈ 358 µM)	16 (≈ 44.8 µM)	

More lines, main results first:

MIC [1] [µg/mL]	MIC (Enterobacter cloacae) [µg/mL]	MIC (Escherichia coli [3]) [µg/mL]	MIC (Shigella) [µg/mL]	MIC [5] [µg/mL]	MIC (Staphylococcus aureus [6]) [µg/mL]	MIC (Staphylococcus aureus [7]) [µg/mL]	MIC (Enterococcus faecalis) [µg/mL]	MIC [8] [µg/mL]	MIC (Klebsiella pneumoniae) [µg/mL]	MIC (Pseudomonas aeruginosa) [µg/mL]	MIC (Providencia stuartii [11]) [µg/mL]	MIC (Escherichia coli [14]) [µg/mL]	Compound	also measured
2 (≈ 5.33 µM)	0.12 (≈ 0.32 µM)	0.03 (≈ 0.0799 µM)	0.25 (≈ 0.666 µM)	4 (≈ 10.7 µM)	2 (≈ 5.33 µM)	2 (≈ 5.33 µM)	4 (≈ 10.7 µM)	4 (≈ 10.7 µM)	0.03 (≈ 0.0799 µM)	4 (≈ 10.7 µM)	2 (≈ 5.33 µM)	0.03 (≈ 0.0799 µM)	CN1CCN(c2c(N)c(N)c3c(=O)c(C(=O)O)cn(C4CC4)c3c2F)CC1	
128 (≈ 428 µM)	64 (≈ 214 µM)	4 (≈ 13.4 µM)	64 (≈ 214 µM)	128 (≈ 428 µM)	128 (≈ 428 µM)	128 (≈ 428 µM)	128 (≈ 428 µM)	128 (≈ 428 µM)	2 (≈ 6.68 µM)	128 (≈ 428 µM)	128 (≈ 428 µM)	2 (≈ 6.68 µM)	Nc1cc2c(=O)c(C(=O)O)cn(C3CC3)c2cc1NC1CC1	
0.5 (≈ 1.38 µM)	2 (≈ 5.53 µM)		2 (≈ 5.53 µM)	0.5 (≈ 1.38 µM)	0.25 (≈ 0.692 µM)	0.25 (≈ 0.692 µM)	8 (≈ 22.1 µM)	0.5 (≈ 1.38 µM)	0.03 (≈ 0.083 µM)	4 (≈ 11.1 µM)	4 (≈ 11.1 µM)		CC(C)(C)n1cc(C(=O)O)c(=O)c2cc(N)c(N3CCSCC3)cc21	MIC (Escherichia coli [12]): 0.06 µg/mL (≈ 0.166 µM); MIC (Escherichia coli [13]): 0.03 µg/mL (≈ 0.083 µM); Concentration [17]: 5.8 µg/mL
